Measurements from US4171299A, “Polypeptide agents for blocking the human allergic response” (The Regents of the University of California, priority 1976, dated 1979).
Peptide text beside a SMILES is read from it.

Key:
Type in all cases: in vivo
DBA white mice = experiment: Acute toxicity in DBA white mice; conditions: 24 to 72 hours post-injection; for post-mortem gross and microscopic examination of tissues and organs: 1.4 ml i.d./s.c./i.v./i.p.
Procedure: Acute toxicity was determined as follows:
DBA white mice (average weight 15 g.) were each injected with 1.4 ml. of a solution of the peptide in phosphate buffered saline, pH 7.4, as follows:
0.1 ml.×3 --subcutaneously
0.6 ml.--intraperitoneally
The peptides and concentrations used were as follows:
Ala-Asp-Ser-Asp-Pro-Arg (Example 4)--5 μg/ml--(375 mg/kg)--6 mice
Asp-Ser-Asp-Pro-Arg (Example 3)--10 μg/ml--(1 mg/kg)--8 mice
Asp-Ser-Asp-Pro-Arg (Example 3)--13 μg/ml--(1.3 mg/kg)--8 mice

[1] = target: T1, binding sites on mast cells (Homo sapiens, UniProt P12319); experiment: Prausnitz-Kustner (P-K) reaction blocking activity assay in human volunteers; conditions: for inhibition, individual high: highest individual of six; for inhibition, individual high / inhibition, individual low: same conditions as the average; for inhibition, individual low: lowest individual of six; for average % inhibition (P-K wheal): six individuals, peptide approx. 6 μg/ml, 0.1 ml intradermally per site, 0.05 ml diluted P-K serum containing 0.2 ng IgE, guinea pig antigen prick-puncture, versus control wheal
T1 construct: endogenous in cells; host or cells: skin mast cells of living human volunteers (intradermal injection sites on back or forearm)
T1 sequence (P12319 26-257): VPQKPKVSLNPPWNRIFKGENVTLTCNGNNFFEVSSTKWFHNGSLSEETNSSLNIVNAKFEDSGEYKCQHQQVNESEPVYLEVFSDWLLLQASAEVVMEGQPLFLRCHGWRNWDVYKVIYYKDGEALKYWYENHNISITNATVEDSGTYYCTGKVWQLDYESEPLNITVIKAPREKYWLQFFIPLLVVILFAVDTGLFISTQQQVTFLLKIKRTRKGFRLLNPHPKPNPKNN
T1 sequence (Q01362 1-244 partner): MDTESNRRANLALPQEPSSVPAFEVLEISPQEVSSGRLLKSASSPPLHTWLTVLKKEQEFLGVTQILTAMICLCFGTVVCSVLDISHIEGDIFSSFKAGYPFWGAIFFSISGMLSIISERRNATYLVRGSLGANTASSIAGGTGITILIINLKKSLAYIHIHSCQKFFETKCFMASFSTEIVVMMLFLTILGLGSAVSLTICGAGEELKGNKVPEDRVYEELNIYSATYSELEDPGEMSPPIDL
T1 sequence (P30273 19-86 partner): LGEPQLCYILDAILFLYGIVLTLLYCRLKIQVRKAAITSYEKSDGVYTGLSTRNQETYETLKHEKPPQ
Procedure: The "blocking" activity of the polypeptides of the invention can be assayed by utilization of the classic Prausnitz-Kustner (P-K) reaction. In this classic method, a known allergic serum i.e., one that contains IgE specific for a known antigen or allergen is injected intradermally into a human volunteer. After waiting a period of time, e.g. 20 or more hours, the injected sites are then challenged with a prick or injection of a solution of an antigen that is specific for the IgE in the injected serum. Within the next 10 to 30 minutes a positive reaction is evidenced by the development of a wheal (and flare) at the injected site. The more extensive the diameter of the wheal the more intensive is the allergic reaction. That is, a more extensive wheal indicates a greater release of histamine into the tissues at the injected site. Conversely, the development of wheals of lesser diameter or the absence of any wheal at all indicates diminished allergic reaction and/or no allergic reaction at all. The P-K reaction as noted above is a classic test and is universally known and utilized by allergists.
As noted above, the classic P-K reaction is utilized to assay the "blocking" abilities of the polypeptides utilized in the present invention.
The following describes assays of a number of polypeptides useful in the present invention, the synthesis of which was described hereinabove.
All of these assays were performed using a single proven safe P-K donor serum that contains IgE specific for guinea pig allergens.
Peptide solutions were either injected intradermally 1 to 24 hours prior to the P-K serum, or mixed with dilutions of the P-K serum for simultaneous injection. Initial tests were performed using the P-K serum at from 1:4 to 1:200 dilutions. Further studies were run at a fixed P-K dilution of 1:32 while the invention peptide solutions were varied to contain from about 1 mM to […] of the peptide being tested. Injected sites on the volunteers were challenged by prick-puncture of guinea pig BCA 1:40 w/v (purchased from Berkeley Biologicals, Inc.).
Human volunteers were chosen who had serum IgE levels below 100 U/ml (242 ng/ml) which levels have been previously shown to assure successful P-K reactivity. […] P-K and skin tests were performed on the back and/or forearm. Multiple test sites of approximately 25 mm diameter were circled with a marking pen and all injections were made within the circled skin areas.
A typical sequence of events was intradermal injection of 0.1 ml of the peptide solution or control buffered saline diluent solution; followed in 1 to 24 hours by intradermal injection of 0.05 ml. of P-K serum into each of the previously injected sites. After 20 to 24 hours had elapsed, each site was prick-punctured with the antigen solution, blotted dry in 5 minutes and measurements of the wheal and flare in both their narrowest and widest diameter were made three times, usually 15, 20 and 25 minutes after prick-punctures.
Blocking activity assays were undertaken with the following polypeptides: Asp-Pro-Arg; Ser-Asp-Pro-Arg; Asp-Ser-Asp-Pro-Arg; and Ala-Asp-Ser-Asp-Pro-Arg. For comparison testing, Asp-Thr-Glu-Ala-Arg and tosyl-L-arginine sarcosine methylester (TASME), were also synthesized and tested.
The above-noted polypeptides were assayed as noted above on six different individuals. Results were as follows:
The results, as noted above, present the average of measurements at three time intervals, in duplicate, for each reaction in each individual, subtracted from the average control wheal measurements, and divided by the average measurement of each individual's control wheal. Control wheals in different individuals varied from 8 to 40 mm^2 with a mean of 17 mm^2. Each peptide was utilized at approximately 6 μg/ml dilution and 0.1 ml. was injected at each site, followed by 0.05 ml. of diluted P-K serum containing 0.2 ng. of IgE. […]

[2] = target: T2, IgE already bound to mast cell sites (Homo sapiens, UniProt P12319); experiment: Displacement test: direct guinea pig antigen skin challenge in a naturally sensitive individual; conditions: single sensitive individual; for wheal smaller than at buffered saline diluent site: challenge twenty-four hours after intradermal injection of approx. 2 nM
T2 construct: endogenous in cells; host or cells: skin mast cells of one naturally guinea-pig-sensitive person, carrying own IgE
T2 sequence (P12319 26-257): T1 sequence (P12319 26-257)
T2 sequence (Q01362 1-244 partner): T1 sequence (Q01362 1-244 partner)
T2 sequence (P30273 19-86 partner): T1 sequence (P30273 19-86 partner)
Procedure: It has also been determined that the active polypeptides of the invention appear to have the ability to "displace" IgE from mast cell sites as well as to prevent the binding of IgE to these sites. In a single test, an individual known to have extreme sensitivity to guinea pig antigens, that is a person with a high natural concentration of guinea-pig-antigen-sensitive IgE, was injected with polypeptides in accordance with the invention, and […] reaction to guinea pig antigen was noted.
Specifically, approximately 2 nM each of Asp-Ser-Asp-Pro-Arg and Ala-Asp-Ser-Asp-Pro-Arg were each intradermally injected into 3 marked sites. For comparison, TASME, as well as a control of the buffer diluent alone, was also each injected into 3 marked sites. At one, five and twenty-four hours subsequent to the polypeptide and control injection, one of each peptide and one diluent site were prick-puncture challenged with guinea pig antigen. […] However, at the twenty-four hour challenge, the wheal at the Asp-Ser-Asp-Pro-Arg site was approximately 45% smaller; while at the Ala-Asp-Ser-Asp-Pro-Arg site, the wheal was approximately 23% smaller.

| Molecule | post-mortem gross and microscopic examination of tissues and organs (DBA white mice; 5 μg/ml (375 mg/kg), 6 mice) | survival of mice (DBA white mice; 5 μg/ml (375 mg/kg), 6 mice) | inhibition, individual high [1] | inhibition, individual low [1] | average % inhibition (P-K wheal) [1] | wheal smaller than at buffered saline diluent site [2] | post-mortem gross and microscopic examination of tissues and organs (DBA white mice; 10 μg/ml (1 mg/kg), 8 mice) | survival of mice (DBA white mice; 10 μg/ml (1 mg/kg), 8 mice) | post-mortem gross and microscopic examination of tissues and organs (DBA white mice; 13 μg/ml (1.3 mg/kg), 8 mice) | survival of mice (DBA white mice; 13 μg/ml (1.3 mg/kg), 8 mice) | inhibition of the wheal and flare reaction ([2]; challenge one and five hours after intradermal injection of approx. 2 nM) |
| --- | --- | --- | --- | --- | --- | --- | --- | --- | --- | --- | --- |
| C[C@H](N)C(=O)N[C@@H](CC(=O)O)C(=O)N[C@@H](CO)C(=O)N[C@@H](CC(=O)O)C(=O)N1CCC[C@H]1C(=O)N[C@@H](CCCNC(=N)N)C(=O)O [Ala-Asp-Ser-Asp-Pro-Arg] (H-ADSDPR-OH) | no local or systemic toxicological abnormalities | all still living | 61% | 10% | 46% | approximately 23% | – | – | – | – | – |
| N=C(N)NCCC[C@H](NC(=O)[C@@H]1CCCN1C(=O)[C@@H](N)CC(=O)O)C(=O)O [Asp-Pro-Arg] (H-Asp-Pro-Arg-OH) | – | – | 38% | 0% | 15% | – | – | – | – | – | – |
| N=C(N)NCCC[C@H](NC(=O)[C@@H]1CCCN1C(=O)[C@H](CC(=O)O)NC(=O)[C@H](CO)NC(=O)[C@@H](N)CC(=O)O)C(=O)O [Asp-Ser-Asp-Pro-Arg] (H-DSDPR-OH) | – | – | 89% | 60% | 72% | approximately 45% | no local or systemic toxicological abnormalities | all still living | no local or systemic toxicological abnormalities | all still living | – |
| C[C@H](NC(=O)[C@H](CCC(=O)O)NC(=O)[C@@H](NC(=O)[C@@H](N)CC(=O)O)[C@@H](C)O)C(=O)N[C@@H](CCCNC(=N)N)C(=O)O [Asp-Thr-Glu-Ala-Arg, reference compound] (H-DTEAR-OH) | – | – | 80% | 30% | 58% | – | – | – | – | – | – |
| N=C(N)NCCC[C@H](NC(=O)[C@@H]1CCCN1C(=O)[C@H](CC(=O)O)NC(=O)[C@@H](N)CO)C(=O)O [Ser-Asp-Pro-Arg] (H-SDPR-OH) | – | – | 50% | 0% | 18% | – | – | – | – | – | – |
| tosyl-L-arginine sarcosine methylester [TASME, reference compound] | – | – | 40% | 0% | 24% | No reduction in the size of the wheal | – | – | – | – | No inhibition |
